Test: Pharmacokinetic study of Hou in rats after single administration of HEO (LC-MS/MS, non-compartmental model)
Type: in vivo, rat
Settings: for AUC(0–t) / AUC(0–∞) / C max / T 1/2 / T max / V z: Hou in rat plasma after single administration of HEO; for AUC(0–t) / AUC(0–∞) / C max / T 1/2 / T max / V z / MRT(0–t): n = 6; for MRT(0–t): Hou in rat plasma after HEO
Description: The pharmacokinetics of HEO administrated to rat via gavage and injection were evaluated based on the determination of Hou blood concentration by the established LC-MS/MS approach. Furthermore, the parameters of the pharmacokinetics were calculated by a non-compartmental model using the Drug and Statistics Software (DAS), version 3.2.8.
Twelve male SD rats (200 ± 30 g) were kept in an appropriate environment for three days before the start of the experiment. Before drug administration, the rats were fasted except for free water access for 12 h. All animals were randomly divided into two groups with six animals in each group. Blood samples (0.2 mL) were withdrawn at specific time intervals (0 h, 5 min, 10 min, 15 min, 30 min, 1 h, 2 h, 3 h, 4 h, 6 h, 8 h, 12 h, and 24 h) after administration in heparinized tubes. The samples were immediately centrifuged at 3000 rpm, and kept at −20 °C in a refrigerator.
Plasma samples (100 μL) were mixed with 100 μL of DNPH (2 mg/mL), 50 μL of IS (PTD, 200 µg/mL), and 150 μL acetonitrile (containing 2% HCl) with uniform mixing, followed by vigorous vortexing for 3 min to precipitate the protein. Then, all samples were shaken in a water bath oscillator for 15 min at 45 °C. The solutions were then centrifuged. The centrifugation step was repeated once, and plasma samples of Hou were obtained and subjected to LC-MS/MS analysis.
Pharmacokinetic parameters including AUC (0–t), AUC (0–∞), MRT (0–t), MRT (0–∞), CLz and so on, were calculated using the DAS (version 3.2.8, Chinese Pharmacological Association, Beijing, China). The Cmax was obtained from the concentration–time curve. The area under the plasma concentration–time curve from zero to the time of the last measurable sample AUC (0–t)), area under the plasma concentration–time curve from zero to infinity AUC (0−∞), mean residence time from zero to the time of the last measurable sample (MRT0−t), mean residence time from zero to the time of infinity (MRT0−∞), and CLz were calculated using the DAS.

3-oxo-dodecanal [Hou]
F (absolute bioavailability) (Hou after HEO, gavage (oral administration)): 7.08%
F (Hou after HEO, injection (reference route)): 100%
AUC(0–t) (gavage): 2451.79 ± 300.01 µg·h/L
AUC(0–∞) (gavage): 2451.837 ± 432.74 µg·h/L
C max (gavage): 222.48 ± 20.38 µg/L
T 1/2 (gavage): 6.45 ± 0.94 h
T max (gavage): 3.71 ± 1.07 h
V z (gavage): 85.81 ± 5.74 L/kg
AUC(0–t) (injection): 32,693.2 ± 1320 μg/L × h
AUC(0–∞) (injection): 34,630.466 ± 1436 μg/L × h
C max (injection): 2010 ± 350 µg/L
T 1/2 (injection): 5.987 ± 0.52 h
T max (injection): 0.033 ± 0.012 h
V z (injection): 5.611 ± 0.97 L/kg
maximum plasma concentration (Cmax) (Hou in rats after HEO, oral administration): 222.48 ng/mL
MRT(0–t) (first MRT line (r8), gavage): 8.914 ± 2.73 h
MRT(0–t) (first MRT line (r8), injection): 7.575 ± 1.21 h
MRT(0–t) (second MRT line (r9), gavage): 11.594 ± 1.85 h
MRT(0–t) (second MRT line (r9), injection): 9.153 ± 0.98 h

From article PMC8073230, “Development and Verification of a Precolumn Derivatization LC-MS/MS Method for the Pharmacokinetic Study of Houttuynine of Houttuynia Essential Oil” (Molecules, 2021)
